The results in this text go back to US20050272770A1, “Compositions and treatments for inhibiting kinase and/or HMG-CoA reductase” (priority 2004, published 2005).

Experiment [1] has as its system oxazolone-induced mouse ear swelling. As to the kind of experiment: Model for inhibition of topical inflammation (oxazolone-induced mouse ear swelling). The format is in vivo, BALB/c male mice. Particulars: for % Inh. of oxazolone-induced mouse ear swelling: topical, ear thickness 24 hours after challenge. The procedure:
Left ears were untreated. The thickness of both ears of each animal was measured with a Dyer model micrometer gauge 24 hours after oxazolone challenge, and the net increase in thickness of right ears versus left ears was calculated for each animal. Percent inhibition was calculated according to the formula: [(Iv−It)/Iv]×100, where Iv and It respectively refer to the average net increase in right ear thickness (mm) for vehicle and candidate compound treated mice.

Experiment [2] has as its target T1, human recombinant p38α protein kinase (Homo sapiens, UniProt Q16539).
T1 construct: purchased UBI 14-251; host or cells: E. coli
As to the kind of experiment: Human p38α MAP kinase inhibition assay (cell-free, phosphorylation of myelin basic protein). The format is biochemical. The method, then:
In vitro cell-free p38α MAP kinase inhibition assays were conducted by the method as described in Clerk et al., FEBS Lett., 426:93-96 (1998) for a number of lactones in formulas I/IIa/IIb. Briefly, human recombinant p38α protein kinase expressed in E. coli (UBI #14-251) was used. Myelin basic protein (MBP, UBI #13-110) was employed as substrate, and microtiter plate wells were coated with MBP (0.01 mg/ml) overnight at 4° C. Candidate compound and/or vehicle was preincubated with 0.075 μg/mL enzyme in modified HEPES buffer pH 7.4 at 25° C. for 15 minutes. The reaction was initiated by addition of 100 μM ATP and allowed to proceed for another 60 minutes. The reaction was terminated by aspirating the solution. Phosphorylated MBP was detected by incubation with a mouse monoclonal IgG2a anti-phosphoMBP antibody. Bound anti-phosphoMBP antibody was quantitated by incubation with a HRP conjugated goat anti-mouse IgG.

Experiment [3] deals with LPS-induced TNF-α release from human peripheral blood mononuclear cells. As to the kind of experiment: Whole cell LPS-stimulated TNF-α release assay. The format is cell-based. The method, then:
The procedure as described in Welker et al., Int. Arch. Allergy and Immunol. 109:110-115 (1996) can be followed. Briefly, a candidate compound and/or vehicle can be preincubated with human peripheral blood mononuclear leukocytes (PBML, 5×10^5/ml) cells in AIM-V medium pH 7.4 for 2 hours. Lipopolysaccharide (LPS, 25 ng/ml) can be added to stimulate the cells, which can be incubated overnight at 37° C. TNF-α cytokine levels in the conditioned medium can then be quantitated using a sandwich ELISA kit.
(§1) Table III below summarizes the results of in vitro assays described above for HMG-CoA and/or MAP kinase inhibitory activity of specific pyrazole compounds.

In experiment [4] the target is T2, rat liver HMG-CoA reductase (Rattus norvegicus, UniProt P51639).
T2 construct: from tissue; host or cells: rat liver (per the results' head)
T2 sequence (P51639 1-887): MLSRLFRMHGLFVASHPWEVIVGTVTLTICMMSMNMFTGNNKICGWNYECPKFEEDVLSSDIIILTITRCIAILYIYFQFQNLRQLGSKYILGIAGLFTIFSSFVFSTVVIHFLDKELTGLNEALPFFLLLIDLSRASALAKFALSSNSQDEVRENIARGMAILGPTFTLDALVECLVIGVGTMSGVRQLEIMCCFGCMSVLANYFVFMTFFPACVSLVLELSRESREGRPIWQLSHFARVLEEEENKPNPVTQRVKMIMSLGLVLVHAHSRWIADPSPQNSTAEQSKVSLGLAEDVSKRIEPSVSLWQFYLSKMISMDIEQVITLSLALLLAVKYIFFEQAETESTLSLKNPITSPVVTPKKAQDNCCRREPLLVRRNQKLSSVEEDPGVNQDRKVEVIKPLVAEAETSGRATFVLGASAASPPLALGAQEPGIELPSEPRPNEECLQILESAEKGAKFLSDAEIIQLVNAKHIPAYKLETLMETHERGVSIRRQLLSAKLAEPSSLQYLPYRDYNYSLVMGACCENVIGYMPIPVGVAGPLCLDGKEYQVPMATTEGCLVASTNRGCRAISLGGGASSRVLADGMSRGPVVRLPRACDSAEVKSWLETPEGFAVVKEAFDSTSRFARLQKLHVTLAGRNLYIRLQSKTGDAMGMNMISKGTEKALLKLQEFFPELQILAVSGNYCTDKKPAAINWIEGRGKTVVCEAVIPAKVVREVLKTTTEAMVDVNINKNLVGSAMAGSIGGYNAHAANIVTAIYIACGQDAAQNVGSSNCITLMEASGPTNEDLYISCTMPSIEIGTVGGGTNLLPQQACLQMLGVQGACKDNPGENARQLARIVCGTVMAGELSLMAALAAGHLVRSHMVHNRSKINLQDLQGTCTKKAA
As to the kind of experiment: Cell-free HMG-CoA reductase assay. The format is biochemical. Particulars: concentration required to inhibit rat liver HMG-CoA reductase by 50%; read-out: IC50 HMG-CoA R. The method, then:
An example of a cell-free HMG-CoA reductase assay involves radiometric procedures described in Shum et al., Ther. Drug Monit. 20:41-49 (1998), incorporated herein by reference. Briefly, about 150 μg/mL of HMG-CoA reductase can be incubated with a candidate compound, together with about 12 μM [^14C]HMG-CoA and about 200 μM NADPH in about 200 μL 0.2M phosphate buffer (pH about 7.2) for about 0.5 h at about 37° C. The [^14C]mevalonate that forms can be converted under acidic conditions to [^14C]mevalonolactone and separated from un-reacted substrate, for example, by ion-exchange chromatography, and then quantified, for example, by liquid scintillation counting.
as §1

Where [5] appears, read: in vitro, human p38α MAP kinase, Table I, read-out: IC50 p38α.
Where [6] appears, read: Homo sapiens, PBMC, read-out: IC50 Whole cell.
The mark [7] stands for this setting: inhibition of phosphorylation of myelin basic protein by recombinant human p38α MAP kinase by 50%, Table III, read-out: IC50 p38α MAPK.
Where [8] appears, read: Homo sapiens, PBMC; read-out: IC50 Whole cell.

Several values for one entry are separate records, joined by “and”; a condition that tells them apart may be missing. Identical values can stand only once. Counter-ions that a name gives are not always drawn. Like-named read-outs stand apart in the source and are kept apart here. Where only a bound is given, the exact number is not on record here.

By IC50 is commonly meant the concentration needed to halve the response being measured.

T1 sequence (Q16539 whole entry): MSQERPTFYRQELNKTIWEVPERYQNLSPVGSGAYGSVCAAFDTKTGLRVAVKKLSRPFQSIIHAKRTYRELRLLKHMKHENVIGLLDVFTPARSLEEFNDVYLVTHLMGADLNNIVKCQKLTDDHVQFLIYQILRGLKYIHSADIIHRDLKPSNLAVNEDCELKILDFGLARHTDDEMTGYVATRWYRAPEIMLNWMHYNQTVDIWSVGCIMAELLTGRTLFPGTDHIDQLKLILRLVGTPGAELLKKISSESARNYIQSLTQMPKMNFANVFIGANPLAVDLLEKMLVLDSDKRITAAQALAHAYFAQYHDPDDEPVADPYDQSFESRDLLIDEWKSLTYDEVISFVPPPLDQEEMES

With `COc1ccc2c(c1)c(CC(=O)O)c(C)n2C(=O)c1ccc(Cl)cc1` [Indomethacin], the “% Inh. of oxazolone-induced mouse ear swelling” value in experiment [1] (dose 2 × 0.3 mg) is 44%.

For `CC(C)c1nc(N(C)S(C)(=O)=O)nc(-c2ccc(F)cc2)c1/C=C/[C@@H](O)C[C@@H](O)CC(=O)O` [Rosuvastatin calcium], the IC50 in experiment [2] (setting [5]) worked out at 92 µM.

As to `O=C(O)C[C@H](O)C[C@H](O)/C=C/c1c(-c2ccccc2)nn(-c2ccnc(Nc3ccccc3)n2)c1-c1ccccc1` [Example 11a, (3R,5S,E)-7-(3,5-diphenyl-1-(2-(phenylamino)pyrimidin-4-yl)-1H-pyrazol-4-yl)-3,5-dihydroxyhept-6-enoic acid calcium salt], the IC50 in experiment [3] (setting [6]) was 31 µM; in experiment [2] (setting [7]), 11 µM; in experiment [4], 0.033 µM.

On to `CC(C)c1c(C(=O)Nc2ccccc2)c(-c2ccccc2)c(-c2ccc(F)cc2)n1CC[C@@H]1C[C@@H](O)CC(=O)O1` [Atorvastatin lactone], for which, in experiment [1] (observations on Table II), the “anti-inflammatory activity in ear swelling model, comparison in words” value was “most potent anti-inflammatory activity in this assay”. In addition, the “% Inh. of oxazolone-induced mouse ear swelling” value is 40% in experiment [1] (dose 2 × 0.3 mg); 50% and 58% and 40% in experiment [1] (dose 2 × 0.3 mg, listed as atorvastatin lactone); 58% in experiment [1] (dose 2 × 1 mg); 50% in experiment [1] (dose 2 × 2 mg). Besides, in experiment [2] (setting [5]), the half-maximal inhibitory concentration (IC50) was ~20 µM and 20 µM.

In the case of `O=C(O)C[C@H](O)C[C@H](O)CCc1c(-c2ccccc2)nn(-c2ccnc(Nc3ccccc3)n2)c1-c1ccccc1` [Example 11c, (3R,5R)-7-(3,5-diphenyl-1-(2-(phenylamino)pyrimidin-4-yl)-1H-pyrazol-4-yl)-3,5-dihydroxyheptanoic acid], the figures for the concentration for half-maximal inhibition (IC50) in experiment [3] (setting [8]) and in experiment [4] were 18 µM and above 0.1 µM, respectively.

With `O=C(O)C[C@H](O)C[C@H](O)/C=C/c1cnn(-c2ccnc(Nc3ccccc3)n2)c1-c1cccc(C(F)(F)F)c1` [Example 11g, (3R,5S,E)-3,5-dihydroxy-7-(1-(2-(phenylamino)pyrimidin-4-yl)-5-(3-(trifluoromethyl)phenyl)-1H-pyrazol-4-yl)hept-6-enoic acid calcium salt], the values for the half-inhibitory concentration (IC50) in experiment [3] (setting [6]), in experiment [2] (setting [7]) and in experiment [4] were 52 µM, 14 µM and above 0.1 µM, respectively.

`O=C1C[C@H](O)C[C@@H](/C=C/c2c(-c3ccccc3)nn(-c3ccnc(Nc4ccccc4)n3)c2-c2ccccc2)O1` [Example 11b, (4R,6S,E)-6-(2-(3,5-diphenyl-1-(2-(phenylamino)pyrimidin-4-yl)-1H-pyrazol-4-yl)vinyl)-4-hydroxy-tetrahydropyran-2-one]: the values for the half-inhibitory concentration (IC50) in experiment [3] (setting [8]) and in experiment [2] (setting [7]) were 21 µM and 6 µM, respectively.

On to `O=C([O-])C[C@H](O)C[C@H](O)/C=C/c1c(C2CC2)nc2ccccc2c1-c1ccc(F)cc1.O=C([O-])C[C@H](O)C[C@H](O)/C=C/c1c(C2CC2)nc2ccccc2c1-c1ccc(F)cc1.[Ca+2]` [Pitavastatin calcium], for which the results for the “% Inh. of oxazolone-induced mouse ear swelling” value in experiment [1] (dose 2 × 0.3 mg) and in experiment [1] (dose 2 × 2 mg) were 9% and 60%, respectively.

With `CC(C)n1c(/C=C/C(O)CC(O)CC(=O)O)c(-c2ccc(F)cc2)c2ccccc21` (centres unmarked) [Fluvastatin sodium], the “% Inh. of oxazolone-induced mouse ear swelling” value in experiment [1] (dose 2 × 0.3 mg) is listed as 28%. For the same molecule, in experiment [2] (setting [5]), the concentration for half-maximal inhibition (IC50) is ~34 µM and 34 µM.

For `COc1nccc(-n2nc(C(C)C)c(/C=C/[C@@H]3C[C@@H](O)CC(=O)O3)c2-c2cccc(C(F)(F)F)c2)n1` [Example 11f, (4R,6S,E)-4-hydroxy-6-(2-(3-isopropyl-1-(2-methoxypyrimidin-4-yl)-5-(3-(trifluoromethyl)phenyl)-1H-pyrazol-4-yl)vinyl)-tetrahydropyran-2-one], the IC50 was 16 µM in experiment [3] (setting [8]) and above 100 µM in experiment [2] (setting [7]).

For the molecule Simvastatin sodium, the IC50 in experiment [2] (setting [5]) was above 100 µM.

Turning to `CC(C)c1c(C(=O)Nc2ccccc2)c(-c2ccccc2)c(-c2ccc(F)cc2)n1CC[C@@H](O)C[C@@H](O)CC(=O)O` [Atorvastatin calcium], in experiment [2] (setting [5]), the concentration for half-maximal inhibition (IC50) was above 100 µM.

Turning to `CC(C)c1nc(N(C)S(C)(=O)=O)nc(-c2ccc(F)cc2)c1/C=C/[C@@H](O)C[C@@H](O)CC(=O)O` [Rosuvastatin sodium], in experiment [1] (dose 2 × 0.3 mg), the “% Inh. of oxazolone-induced mouse ear swelling” value is listed as 20%.

Consider `COc1nccc(-n2nc(C(C)C)c(/C=C/[C@@H](O)C[C@@H](O)CC(=O)O)c2-c2cccc(C(F)(F)F)c2)n1` [Example 11e, (3R,5S,E)-3,5-dihydroxy-7-(3-isopropyl-1-(2-methoxypyrimidin-4-yl)-5-(3-(trifluoromethyl)phenyl)-1H-pyrazol-4-yl)hept-6-enoic acid calcium salt], for which the figures for the IC50 in experiment [3] (inhibition of LPS-induced TNF-α release from human peripheral blood mononuclear cells by 50%; read-out: IC50 Whole cell), in experiment [2] (setting [7]) and in experiment [4] were 30 µM, 36 µM and 0.002 µM, respectively.

On to `CCC(C)c1nn(-c2ccnc(Nc3ccccc3)c2)c(-c2ccc(F)cc2)c1/C=C/[C@@H]1C[C@@H](O)CC(=O)O1` (some centres unmarked) [Example 10b], for which the half-inhibitory concentration (IC50) in experiment [3] (setting [8]) worked out at 14 µM; in experiment [2] (setting [7]) it was 6 µM.

In the case of `CC(C)c1c(C(=O)Nc2ccccc2)c(-c2ccccc2)c(-c2ccc(F)cc2)n1CC[C@@H](O)C[C@@H](O)CC(=O)O` [Atorvastatin sodium], the “% Inh. of oxazolone-induced mouse ear swelling” value stood at 9% in experiment [1] (dose 2 × 0.3 mg), 31% in experiment [1] (dose 2 × 1 mg) and 63% in experiment [1] (dose 2 × 2 mg).

`CC[C@H](C)C(=O)O[C@H]1C[C@H](O)C=C2C=C[C@H](C)[C@H](CC[C@@H](O)C[C@@H](O)CC(=O)O)[C@H]21` [Pravastatin sodium]: in experiment [1] (dose 2 × 0.3 mg), the “% Inh. of oxazolone-induced mouse ear swelling” value is given as 24%.

Take `O=C1C[C@H](O)C[C@@H](CCc2c(-c3ccccc3)nn(-c3ccnc(Nc4ccccc4)n3)c2-c2ccccc2)O1` [Example 11d, (4R,6R)-6-(2-(3,5-diphenyl-1-(2-(phenylamino)pyrimidin-4-yl)-1H-pyrazol-4-yl)ethyl)-4-hydroxy-tetrahydropyran-2-one]: the IC50 in experiment [3] (setting [8]) was determined as 11 µM; in experiment [2] (setting [7]), 8 µM.
